Results published in ChEMBL document CHEMBL1201862, “PubChem BioAssay data set” (2004).
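The compound was tested at five concentrations on cells cultured in 96-well plates, with a 48-hour exposure period. The concentration for 50% growth inhibition is given as GI50.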 Active and inactive are the calls of the source. Cut-off read from the data, not from the text of the source: active = GI50 up to about 1.1 µM and inactive = higher.

Assays:
Assay in all cases: DTP human tumour cell line panel, 48 h
786-0 = system: 786-0
A498 = system: A498
A549 = system: A549
ACHN = system: ACHN
CAKI-1 = system: CAKI-1
CCRF-CEM = system: CCRF-CEM
COLO 205 = system: COLO 205
DLD-1 = system: DLD-1
DMS-114 = system: DMS-114
EKVX = system: EKVX
HCC 2998 = system: HCC 2998
HCT-116 = system: HCT-116
HL-60 = system: HL-60
HOP-18 = system: HOP-18
HOP-62 = system: HOP-62
HOP-92 = system: HOP-92
HT-29 = system: HT-29
IGROV-1 = system: IGROV-1
K562 = system: K562
KM-20L2 = system: KM-20L2
KM12 = system: KM12
LOX IMVI = system: LOX IMVI
LXFL 529 = system: LXFL 529
M14 = system: M14
M19-MEL = system: M19-MEL
MOLT-4 = system: MOLT-4
Malme-3M = system: Malme-3M
NCI-H226 = system: NCI-H226
NCI-H23 = system: NCI-H23
NCI-H460 = system: NCI-H460
NCI-H522 = system: NCI-H522
OVCAR-3 = system: OVCAR-3
OVCAR-4 = system: OVCAR-4
OVCAR-8 = system: OVCAR-8
RXF 393 = system: RXF 393
SF-268 = system: SF-268
SF-295 = system: SF-295
SF-539 = system: SF-539
SK-MEL-28 = system: SK-MEL-28
SK-MEL-5 = system: SK-MEL-5
SK-OV-3 = system: SK-OV-3
SN12C = system: SN12C
SNB-19 = system: SNB-19
SNB-75 = system: SNB-75
SNB-78 = system: SNB-78
SR = system: SR
SW-620 = system: SW-620
TK-10 = system: TK-10
U-251 = system: U-251
UACC-257 = system: UACC-257
UACC-62 = system: UACC-62
UO-31 = system: UO-31
XF498 = system: XF498
DMS-273 = system: DMS-273
HCT-15 = system: HCT-15
OVCAR-5 = system: OVCAR-5
RPMI-8226 = system: RPMI-8226
SK-MEL-2 = system: SK-MEL-2

CC(Oc1ccc2c(-c3ccccc3)cc(=O)oc2c1)C(=O)O (stereo unspecified)
GI50 (786-0): > 100 µM (inactive)
GI50 (A498): > 100 µM (inactive)
GI50 (A549): > 100 µM (inactive)
GI50 (ACHN): > 100 µM (inactive)
GI50 (CAKI-1): > 100 µM (inactive)
GI50 (CCRF-CEM): > 100 µM (inactive)
GI50 (COLO 205): > 100 µM (inactive)
GI50 (DLD-1): > 100 µM (inactive)
GI50 (DMS-114): > 100 µM (inactive)
GI50 (EKVX): > 100 µM (inactive)
GI50 (HCC 2998): > 100 µM (inactive)
GI50 (HCT-116): > 100 µM (inactive)
GI50 (HL-60): > 100 µM (inactive)
GI50 (HOP-18): > 100 µM (inactive)
GI50 (HOP-62): > 100 µM (inactive)
GI50 (HOP-92): > 100 µM (inactive)
GI50 (HT-29): > 100 µM (inactive)
GI50 (IGROV-1): > 100 µM (inactive)
GI50 (K562): > 100 µM (inactive)
GI50 (KM-20L2): > 100 µM (inactive)
GI50 (KM12): > 100 µM (inactive)
GI50 (LOX IMVI): > 100 µM (inactive)
GI50 (LXFL 529): > 100 µM (inactive)
GI50 (M14): > 100 µM (inactive)
GI50 (M19-MEL): > 100 µM (inactive)
GI50 (MOLT-4): > 100 µM (inactive)
GI50 (Malme-3M): > 100 µM (inactive)
GI50 (NCI-H226): > 100 µM (inactive)
GI50 (NCI-H23): > 100 µM (inactive)
GI50 (NCI-H460): > 100 µM (inactive)
GI50 (NCI-H522): > 100 µM (inactive)
GI50 (OVCAR-3): > 100 µM (inactive)
GI50 (OVCAR-4): > 100 µM (inactive)
GI50 (OVCAR-8): > 100 µM (inactive)
GI50 (RXF 393): > 100 µM (inactive)
GI50 (SF-268): > 100 µM (inactive)
GI50 (SF-295): > 100 µM (inactive)
GI50 (SF-539): > 100 µM (inactive)
GI50 (SK-MEL-28): > 100 µM (inactive)
GI50 (SK-MEL-5): > 100 µM (inactive)
GI50 (SK-OV-3): > 100 µM (inactive)
GI50 (SN12C): > 100 µM (inactive)
GI50 (SNB-19): > 100 µM (inactive)
GI50 (SNB-75): > 100 µM (inactive)
GI50 (SNB-78): > 100 µM (inactive)
GI50 (SR): > 100 µM (inactive)
GI50 (SW-620): > 100 µM (inactive)
GI50 (TK-10): > 100 µM (inactive)
GI50 (U-251): > 100 µM (inactive)
GI50 (UACC-257): > 100 µM (inactive)
GI50 (UACC-62): > 100 µM (inactive)
GI50 (UO-31): > 100 µM (inactive)
GI50 (XF498): > 100 µM (inactive)

O=C(NCCCN1CCN(CCCNC(=O)Nc2cc(Cl)ccc2Cl)CC1)Nc1cc(Cl)ccc1Cl
GI50 (786-0): 32.5 µM (inactive)
GI50 (A549): > 100 µM (inactive)
GI50 (ACHN): > 100 µM (inactive)
GI50 (CAKI-1): > 100 µM (inactive)
GI50 (CCRF-CEM): > 100 µM (inactive)
GI50 (COLO 205): 45.5 µM (inactive)
GI50 (DLD-1): > 100 µM (inactive)
GI50 (DMS-114): 38.5 µM (inactive)
GI50 (DMS-273): 22.3 µM (inactive)
GI50 (HCT-116): 79.3 µM (inactive)
GI50 (HCT-15): 65.3 µM
GI50 (HL-60): 34.4 µM (inactive)
GI50 (HOP-18): > 100 µM (inactive)
GI50 (HOP-62): 52.6 µM (inactive)
GI50 (HOP-92): 50.6 µM (inactive)
GI50 (HT-29): 51.4 µM (inactive)
GI50 (IGROV-1): > 100 µM (inactive)
GI50 (K562): 35.5 µM (inactive)
GI50 (KM-20L2): 28.4 µM (inactive)
GI50 (KM12): > 100 µM (inactive)
GI50 (LOX IMVI): 37 µM (inactive)
GI50 (LXFL 529): 51.2 µM (inactive)
GI50 (M14): 27.4 µM (inactive)
GI50 (MOLT-4): > 100 µM (inactive)
GI50 (Malme-3M): 24.3 µM (inactive)
GI50 (NCI-H226): > 100 µM (inactive)
GI50 (NCI-H23): 87.7 µM (inactive)
GI50 (NCI-H460): > 100 µM (inactive)
GI50 (NCI-H522): 38.6 µM (inactive)
GI50 (OVCAR-3): > 100 µM (inactive)
GI50 (OVCAR-4): 34 µM (inactive)
GI50 (OVCAR-5): > 100 µM (inactive)
GI50 (OVCAR-8): 61.8 µM (inactive)
GI50 (RPMI-8226): 80 µM (inactive)
GI50 (RXF 393): > 100 µM (inactive)
GI50 (SF-268): 87.3 µM (inactive)
GI50 (SF-295): 49.3 µM (inactive)
GI50 (SF-539): 44.5 µM (inactive)
GI50 (SK-MEL-28): 60.3 µM (inactive)
GI50 (SK-MEL-2): > 100 µM (inactive)
GI50 (SK-MEL-5): 39.7 µM (inactive)
GI50 (SK-OV-3): 97.9 µM (inactive)
GI50 (SN12C): 83 µM (inactive)
GI50 (SNB-19): 46.3 µM (inactive)
GI50 (SNB-75): 15 µM (inactive)
GI50 (SNB-78): 90.6 µM (inactive)
GI50 (SW-620): > 100 µM (inactive)
GI50 (TK-10): > 100 µM (inactive)
GI50 (U-251): 50.7 µM (inactive)
GI50 (UACC-257): 16.5 µM (inactive)
GI50 (UACC-62): 64.7 µM (inactive)
GI50 (UO-31): > 100 µM (inactive)
GI50 (XF498): > 100 µM (inactive)
